Laboratory results from patent EP0992240A1, “THERAPEUTIC AGENT FOR ERECTION FAILURE” (MOCHIDA PHARMACEUTICAL CO., LTD., priority 1997, dated 1998).
Read-outs that look alike come from different tables or passages of the source.

Experiments:
[1] = tested on: smooth muscle of cavernous body of rabbits; assay: Enhancement of nitroprusside relaxation of isolated cavernous body strips; conditions: relaxation by 1 µM nitroprusside compared with solvent
Procedure: Rabbits were anesthetized by an intravenous injection of 40-50 mg/kg of pentobarbital (Nembutal™ manufactured by Dainippon Pharmaceutical Co., Ltd.), blood was drained out by incision of carotid artery, and penis was taken out and placed in an ice-cooled nutrient solution (Krebs bicarbonate containing 118 mM of NaCl, 4.7 mM of KCl, 1.2 mM of KH2PO4, 1.2 mM of MgSO4.7H2O, 1.5 mM of CaCl2, 25 mM of NaHCO3, 11 mM of glucose and 0.023 mM of EDTA·2Na). After the tissues around the albuginea were incised in a nutrient solution, the albuginea was incised to prepare cavernous body of the penis. The cavernous body was cut and both ends of the strips of about 1 cm length were ligated by nylon yarn. One end was fixed to a supporting rod, transferred into a 20-ml Magnus tube which was filled with the nutrient solution, passed with a mixed gas of 95% oxygen and 5% carbon dioxide and kept at 37 °C while another end of the strip was connected to an isometric transducer (TB-611T; NIHON KOHDEN CORP.) placed on the upper area and a stress load of about 2 g was applied. After stabilization of 60 minutes or longer, strips were contracted with 10 µM of phenylephrine in the presence of 5 µM of guanetidine and 1 µM of atropine and, after stabilization, 1 µM or 100 µM of nitroprusside was added whereby relaxation by nitroprusside was ascertained. […] Rate of relaxation by 1 µM of nitroprusside after addition of the sample was compared with that after addition of the solvent and the increasing rate was calculated. […]

[2] = Absorption by percutaneous administration in rats; format: in vivo; conditions: hairless rats, Dose 10 mg/kg; for MRT / Tmax: rat
Procedure: Abdominal skin of hairless rats (eight weeks age, Nippon SLC) was wiped with 70% ethanol, and 0.25 ml/kg of a drug solution (40 mg/ml DMSO) was applied to an area of 8 cm^2 (2 x 4 cm) and the applied area was coated with a film coating agent (Permiaid S, Nitto Medical) and fixed with an adhesive bandage (Elastopore, Nichiban). After application of the drug solution, aliquot of blood was collected from time to time using a heparin-treated syringe from jugular vein and centrifuged to give plasma. Aliquot plasma was extracted with tert-butyl-methyl-ether three times, and the organic phase was evaporated to dryness and dissolved in the initial solvent for HPLC. A certain amount thereof was injected into a HPLC connected to an ultraviolet absorption detector and the drug concentration in the plasma was measured by means of a reversed phase column. Pharmacokinetic parameters were calculated from the measured data by the same manner as in Experiment 3.

[3] = tested on: male wistar rats; assay: Toxicity test, oral administration for four days; conditions: 100 mg/kg/day orally for four days
[4] = Absorption upon intranasal administration to rats; format: in vivo, Male wistar rats; conditions: for MRT as compared with oral administration / Tmax as compared with oral administration / bioavailability: intranasal administration; for MAT / MRT / Tmax: intranasal; for bioavailability / MRT / Tmax: male, Wistar, rat, inhaled or intranasal
From the text: Male wistar rats (eight weeks age) were anesthetized by intraperitoneal injection of 1 g/kg of urethane. Neck was incised to expose a trachea and polyethylene tube (SP 120; Natsume Seisakusho) was inserted into the trachea. Then a part of esophagus was opened by cutting and a polyethylene tube of the same diameter was inserted to the direction of choana and the end was tightly sealed with absorbent cotton and adhesive. In order to prevent a leakage of drug solution from nasopalatine canal, said canal of upper chin opening to mouth was closed by synthetic adhesive. The drug was dissolved in a 0.1% tartaric acid solution and the drug of 500 µl/kg was administered by a micropipette from outer nasal cavity followed by closing both outer nasal cavities immediately. As a control, the rat to which the drug was intravenously injected was prepared. After the injection; aliquot of blood was collected from time to time from jugular vein using a heparin-treated syringe and centrifuged to give plasma. Certain amount of the resulting plasma was collected, extracted with tert-butyl-methyl-ether three times, and the organic phase was evaporated to dryness and dissolved in the initial solvent for HPLC. A certain amount thereof was injected into an HPLC connected to an ultraviolet absorption detector and the drug concentration in the plasma was measured by reversed phase column. Time for arriving the maximum blood concentration (Tmax), mean residence time (MRT) and mean absorption time (MAT) were calculated from the measured value.

[5] = biological target: T1, PDE type V (Canis lupus familiaris, UniProt O77746); assay: PDE inhibiting activity, type V; format: biochemical, dog; conditions: PDE purified from canine aorta, 1 µM substrate cGMP or cAMP
T1 construct: By elution with a sodium chloride gradient (0 - 0.4 M), PDE types V and III were separated from the other isozymes; from tissue; host or cells: canine aorta
Procedure: The canine aorta was minced and homogenized with a Waring Blender and a glass homogenizer in six volumes of a Tris-HCl buffer solution (pH 7.5, 20 mM) containing 2 mM magnesium acetate, 5 mM ethylenediaminetetraacetic acid (EDTA), 100 µg/mL of phenylmethylsulforyl fluoride and 15 mM 2-mercaptoethanol (2-ME), and centrifuged at 1200 x g for 30 min. […] By elution with a sodium chloride gradient (0 - 0.4 M), PDE types V and III were separated from the other isozymes. […] The resulting precipitated fraction was similarly applied to the DEAE-trisacryl column and eluted by a sodium chloride gradient (0 - 0.4 M) so as to separate PDE type I.
Specifically, a purified PDE sample was added to 50 mM Tris-HCl buffer solution (pH 7.5) containing 1 µM of substrate cGMP or cAMP (containing tritium-labelled cGMP or cAMP), 1 mM EGTA and 2 mM magnesium acetate. For PDE activity measurement, enzymatically produced 5' GMP or 5' AMP was further hydrolyzed into guanosine or adenosine with snake venom and separated from the substrate by means of an ion-exchange resin (Dowex 1-X2), followed by measuring with a scintillation counter. […] The final concentration of DMSO was adjusted to be no more than 2% in consideration of the effect on PDE activity.

[6] = tested on: PDE type I; assay: PDE inhibiting activity, type I; format: biochemical, dog; conditions: PDE purified from canine aorta; 1 µM substrate cGMP or cAMP; read-out: Inhibition Activity IC50 (µM) Type I
Procedure: On the basis of the method of Lugnier et al. (Biochem. Pharmacol., 35, 1743-1751, 1986), PDE was purified from the aorta in a dog. The canine aorta was minced and homogenized with a Waring Blender and a glass homogenizer in six volumes of a Tris-HCl buffer solution (pH 7.5, 20 mM) containing 2 mM magnesium acetate, 5 mM ethylenediaminetetraacetic acid (EDTA), 100 µg/mL of phenylmethylsulforyl fluoride and 15 mM 2-mercaptoethanol (2-ME), and centrifuged at 1200 x g for 30 min. The supernatant was separated and salted out with ammonium sulfate which was added to 45% saturation. The resulting precipitated fraction was resuspended in a Tris-HCl buffer solution (pH 7.5, 20 mM) containing 2 mM magnesium acetate and 1 mM 2-ME, dialyzed overnight and applied to a DEAE-trisacryl column (DEAE […] M:IBF). By elution with a sodium chloride gradient (0 - 0.4 M), PDE types V and III were separated from the other isozymes. The supernatant fraction of 45% saturated ammonium sulfate was further mixed with ammonium sulfate to 65% saturation and salted out. The resulting precipitated fraction was similarly applied to the DEAE-trisacryl column and eluted by a sodium chloride gradient (0 - 0.4 M) so as to separate PDE type I.
The thus obtained PDE types V, III and I were measured for their activity in accordance with the method of Thompson et al. (Adv. Cyclic Nucleotide Res., 10, 69-72, 1979) and the method of Wells et al. (Biochim. Biophys. Acta, 384, 430-443, 1975). Specifically, a purified PDE sample was added to 50 mM Tris-HCl buffer solution (pH 7.5) containing 1 µM of substrate cGMP or cAMP (containing tritium-labelled cGMP or cAMP), 1 mM EGTA and 2 mM magnesium acetate. For PDE activity measurement, enzymatically produced 5' GMP or 5' AMP was further hydrolyzed into guanosine or adenosine with snake venom and separated from the substrate by means of an ion-exchange resin (Dowex 1-X2), followed by measuring with a scintillation counter. The activity of each test compound was determined as a percentage of the PDE activity measured when it was added as a dimethyl sulfoxide solution (DMSO) and its IC50 (50% inhibition concentration) was calculated by the probit method. The final concentration of DMSO was adjusted to be no more than 2% in consideration of the effect on PDE activity.

For `CS(=O)(=O)O.O=c1c(Cc2cccnc2)cn2c3cc(Br)ccc3c3cc(OCCCO)cc1c32` [Example 52, 9-bromo-2-(3-hydroxypropyloxy)-5-(3-pyridylmethyl)-4H-pyrido[3,2,1-jk]carbazol-4-one methanesulfonate], the “Enhancing Rate of Relaxation (%)” value ([1]; Final Added Amount 100 nM) was 90.8%, the “Enhancing Rate of Relaxation (%)” value ([1]; Final Added Amount 1000 nM) was 190.9% and the “MAT” value [2] was 7.9 h. For the same compound, the MRT ([2]; plasma, topical) was 8.5 h, the Tmax ([2]; plasma, topical) was 1 h and the “abnormal change in body weight and general symptoms” value [3] was “no abnormal change”. The dead case ([3]; until the next morning of the completion of the administration) was “no dead case”, the “MRT as compared with oral administration” value [4] was “same” and the “Tmax as compared with oral administration” value [4] was “same or shortened”. The “MAT” value ([4]; Dose 0.3 mg/kg) was 1 to 2 h, the bioavailability ([4]; plasma) was roughly 100% and the MRT ([4]; plasma, Dose 0.3 mg/kg) was 2 to 3 h. The Tmax ([4]; plasma, Dose 0.3 mg/kg) was 0.2 to 0.5 h and the IC50 ([5]; read-out: Inhibition Activity IC50 (µM) Type V) was 0.0057 µM.
In the case of `CCCc1nn(C)c2c(=O)[nH]c(-c3cc(S(=O)(=O)N4CCN(C)CC4)ccc3OCC)nc12.O=C(O)CC(O)(CC(=O)O)C(=O)O` [sildenafil, 5-[2-ethoxy-5-(4-methylpiperazin-1-ylsulfonyl)phenyl]-1-methyl-3-propyl-6,7-dihydro-1H-pyrazolo[4,3-d]pyrimidin-7-one-citrate, reference compound], the “Enhancing Rate of Relaxation (%)” value ([1]; Final Added Amount 1000 nM) is reported as 189.1%, the IC50 [6] is reported as 0.46 µM and the “MAT” value [2] is reported as 14.3 h. For the same compound, the MRT ([2]; in vivo) was 14.7 h, the Tmax ([2]; in vivo) was 1 h and the “MRT as compared with oral administration” value [4] was “same”. For the same compound, the “Tmax as compared with oral administration” value [4] was “same or shortened”, the “MAT” value ([4]; Dose 1.0 mg/kg) was 1 to 2 h and the bioavailability ([4]; in vivo) was roughly 100%. For the same compound, the MRT ([4]; in vivo, Dose 1.0 mg/kg) was 2 to 3 h, the Tmax ([4]; in vivo, Dose 1.0 mg/kg) was 0.2 to 0.5 h and the IC50 ([5]; Inhibition Activity IC50 (µM) Type V) was 0.0018 µM.
